These results are taken from patent US12521375B2, “Pharmaceutical composition for treating fatty liver disease” (Shionogi & Co., Ltd., priority 2020, dated 2026).

Where two headings read alike, the source gives them in different places. Some results are limits rather than exact numbers.

A short description of series [1]: Metabolic stability test (rat). It is filed as in vitro ADME. The method, then: [Worded in the source for another species; this species is reported under the same test.] (§1) Commercially available pooled human liver microsomes were reacted with the compound of the present invention for a given time. A residual rate was calculated by comparison between the reacted sample and the unreacted sample to evaluate a degree at which the compound of the present invention is metabolized in the liver.
(§2) The compound was reacted at 37° C. for 0 minutes or 30 minutes in the presence of 1 mmol/L NADPH in 0.2 mL of a buffer (50 mmol/L Tris-HCl pH 7.4, 150 mmol/L potassium chloride, and 10 mmol/L magnesium chloride) containing 0.5 mg protein/mL of the human liver microsomes (oxidative reaction). After the reaction, 50 μL of the reaction solution was added to 100 μL of a solution of methanol/acetonitrile=1/1 (v/v) and mixed, and the mixture was centrifuged at 3000 rpm for 15 minutes. The compound of the present invention in the centrifuged supernatant was quantified by LC/MS/MS or solid-phase extraction (SPE)/MS. The amount of the compound of the present invention remained after the reaction was calculated with the amount of the compound at 0 minutes of the reaction defined as 100%.

Another series concerns the target recombinant human ACC2 (Homo sapiens (Human), UniProt O00763). In words: Measurement of inhibitory activity of human ACC2. It is filed as biochemical. The following applies: read-out: IC50 hACC2. The source says: A cDNA encoding human ACC2 protein (27 amino acid residues to 2458 amino acid residues from the N-terminus) was cloned from a human kidney cDNA library (Clontech Laboratories, Inc.), a His-tag sequence was introduced at the 5′ end, and then inserted into pFastBac1 (Invitrogen). A recombinant baculovirus was produced in accordance with the protocol for a Bac-to-Bac baculovirus expression system (Invitrogen), and Sf-9 cells were infected therewith to express human ACC2 protein. The recovered cells were crushed, filtered through a filter, and then subjected to Ni affinity chromatography and anion exchange chromatography. Fractions containing human ACC2 protein were collected to obtain recombinant human ACC2.
The recombinant human ACC1 and the recombinant human ACC2 obtained from the above Preparation Examples were preincubated in an assay buffer (50 mM HEPES-KOH (pH 7.4), 10 mM magnesium chloride, 6 to 10 mM potassium citrate, 4 mM reduced glutathione, and 1.5 mg/ml bovine serum albumin) for 1 hour. […] After incubation, the enzymatic reaction was stopped by addition of EDTA, and then the compound was co-crystallized with an α-cyano-4-hydroxy cinnamic acid (CHCA) matrix on a MALDI target plate, and measurement was performed in a reflector negative mode using a matrix-assisted laser desorption ionization-time-of-flight mass spectrometer (MALDI-TOF MS). Deprotonated ions of the substrate acetyl-CoA (AcCoA) and the reaction product malonyl-CoA (MalCoA) were detected, and the intensity of each signal was used to calculate a conversion rate to malonyl-CoA […], i.e., intensity of [MalCoA-H]-/(intensity of [MalCoA-H]-+intensity of [AcCoA-H]-). […] The potassium citrate concentration in the assay buffer, the potassium bicarbonate concentration in the substrate solution, and the incubation time were adjusted within the above concentrations or reaction times for each lot of the enzyme to be used.

The next series concerns the target recombinant human ACC1 (Homo sapiens (Human), UniProt Q13085). In words: Measurement of inhibitory activity of human ACC1. It is filed as biochemical. Particulars: read-out: IC50 hACC1. From the text: A cDNA encoding human ACC1 protein (1 amino acid residue to 2346 amino acid residues from the N-terminus) was cloned from a human liver cDNA library (BioChain Institute Inc.), myc tag and His-tag sequences were introduced at the 3′ end, and then inserted into pIEXBAC3 (Novagen). A recombinant baculovirus was produced in accordance with the protocol for FlashBACGOLD (Oxford Expression Technologies Ltd.), and Sf-9 cells were infected therewith to express human ACC1 protein. The recovered cells were crushed, filtered through a filter, and then subjected to Ni affinity chromatography and anion exchange chromatography. Fractions containing human ACC1 protein were collected to obtain recombinant human ACC1.
The recombinant human ACC1 and the recombinant human ACC2 obtained from the above Preparation Examples were preincubated in an assay buffer (50 mM HEPES-KOH (pH 7.4), 10 mM magnesium chloride, 6 to 10 mM potassium citrate, 4 mM reduced glutathione, and 1.5 mg/ml bovine serum albumin) for 1 hour. Then, 5 μL of the pre-incubated enzyme solution and 5 μL of a substrate solution (50 mM HEPES-KOH (pH 7.4), 1 mM ATP, 0.8 mM acetyl-CoA, and 25 to 50 mM potassium bicarbonate) were added to a 384-well microplate into which 0.2 μL of each of solutions of the compound of the present invention (DMSO) had been dispensed, and the mixture was centrifuged and shaken, and then incubated in a wet box at room temperature for 1 to 3 hours. After incubation, the enzymatic reaction was stopped by addition of EDTA, and then the compound was co-crystallized with an α-cyano-4-hydroxy cinnamic acid (CHCA) matrix on a MALDI target plate, and measurement was performed in a reflector negative mode using a matrix-assisted laser desorption ionization-time-of-flight mass spectrometer (MALDI-TOF MS). Deprotonated ions of the substrate acetyl-CoA (AcCoA) and the reaction product malonyl-CoA (MalCoA) were detected, and the intensity of each signal was used to calculate a conversion rate to malonyl-CoA […], i.e., intensity of [MalCoA-H]-/(intensity of [MalCoA-H]-+intensity of [AcCoA-H]-). […] The potassium citrate concentration in the assay buffer, the potassium bicarbonate concentration in the substrate solution, and the incubation time were adjusted within the above concentrations or reaction times for each lot of the enzyme to be used.

The nature of series [2]: Metabolic stability test (human). It is filed as in vitro ADME. Particulars: human liver microsomes, 37° C., 30 minutes, NADPH. How it is done:
as §1, §2

The test system of another series is healthy subjects. Particulars: repeated administration to healthy subjects; cited from earlier work.
Another series relates to NAFLD patients. Particulars: cited from earlier work.

recombinant human ACC2, sequence (O00763 27-2458): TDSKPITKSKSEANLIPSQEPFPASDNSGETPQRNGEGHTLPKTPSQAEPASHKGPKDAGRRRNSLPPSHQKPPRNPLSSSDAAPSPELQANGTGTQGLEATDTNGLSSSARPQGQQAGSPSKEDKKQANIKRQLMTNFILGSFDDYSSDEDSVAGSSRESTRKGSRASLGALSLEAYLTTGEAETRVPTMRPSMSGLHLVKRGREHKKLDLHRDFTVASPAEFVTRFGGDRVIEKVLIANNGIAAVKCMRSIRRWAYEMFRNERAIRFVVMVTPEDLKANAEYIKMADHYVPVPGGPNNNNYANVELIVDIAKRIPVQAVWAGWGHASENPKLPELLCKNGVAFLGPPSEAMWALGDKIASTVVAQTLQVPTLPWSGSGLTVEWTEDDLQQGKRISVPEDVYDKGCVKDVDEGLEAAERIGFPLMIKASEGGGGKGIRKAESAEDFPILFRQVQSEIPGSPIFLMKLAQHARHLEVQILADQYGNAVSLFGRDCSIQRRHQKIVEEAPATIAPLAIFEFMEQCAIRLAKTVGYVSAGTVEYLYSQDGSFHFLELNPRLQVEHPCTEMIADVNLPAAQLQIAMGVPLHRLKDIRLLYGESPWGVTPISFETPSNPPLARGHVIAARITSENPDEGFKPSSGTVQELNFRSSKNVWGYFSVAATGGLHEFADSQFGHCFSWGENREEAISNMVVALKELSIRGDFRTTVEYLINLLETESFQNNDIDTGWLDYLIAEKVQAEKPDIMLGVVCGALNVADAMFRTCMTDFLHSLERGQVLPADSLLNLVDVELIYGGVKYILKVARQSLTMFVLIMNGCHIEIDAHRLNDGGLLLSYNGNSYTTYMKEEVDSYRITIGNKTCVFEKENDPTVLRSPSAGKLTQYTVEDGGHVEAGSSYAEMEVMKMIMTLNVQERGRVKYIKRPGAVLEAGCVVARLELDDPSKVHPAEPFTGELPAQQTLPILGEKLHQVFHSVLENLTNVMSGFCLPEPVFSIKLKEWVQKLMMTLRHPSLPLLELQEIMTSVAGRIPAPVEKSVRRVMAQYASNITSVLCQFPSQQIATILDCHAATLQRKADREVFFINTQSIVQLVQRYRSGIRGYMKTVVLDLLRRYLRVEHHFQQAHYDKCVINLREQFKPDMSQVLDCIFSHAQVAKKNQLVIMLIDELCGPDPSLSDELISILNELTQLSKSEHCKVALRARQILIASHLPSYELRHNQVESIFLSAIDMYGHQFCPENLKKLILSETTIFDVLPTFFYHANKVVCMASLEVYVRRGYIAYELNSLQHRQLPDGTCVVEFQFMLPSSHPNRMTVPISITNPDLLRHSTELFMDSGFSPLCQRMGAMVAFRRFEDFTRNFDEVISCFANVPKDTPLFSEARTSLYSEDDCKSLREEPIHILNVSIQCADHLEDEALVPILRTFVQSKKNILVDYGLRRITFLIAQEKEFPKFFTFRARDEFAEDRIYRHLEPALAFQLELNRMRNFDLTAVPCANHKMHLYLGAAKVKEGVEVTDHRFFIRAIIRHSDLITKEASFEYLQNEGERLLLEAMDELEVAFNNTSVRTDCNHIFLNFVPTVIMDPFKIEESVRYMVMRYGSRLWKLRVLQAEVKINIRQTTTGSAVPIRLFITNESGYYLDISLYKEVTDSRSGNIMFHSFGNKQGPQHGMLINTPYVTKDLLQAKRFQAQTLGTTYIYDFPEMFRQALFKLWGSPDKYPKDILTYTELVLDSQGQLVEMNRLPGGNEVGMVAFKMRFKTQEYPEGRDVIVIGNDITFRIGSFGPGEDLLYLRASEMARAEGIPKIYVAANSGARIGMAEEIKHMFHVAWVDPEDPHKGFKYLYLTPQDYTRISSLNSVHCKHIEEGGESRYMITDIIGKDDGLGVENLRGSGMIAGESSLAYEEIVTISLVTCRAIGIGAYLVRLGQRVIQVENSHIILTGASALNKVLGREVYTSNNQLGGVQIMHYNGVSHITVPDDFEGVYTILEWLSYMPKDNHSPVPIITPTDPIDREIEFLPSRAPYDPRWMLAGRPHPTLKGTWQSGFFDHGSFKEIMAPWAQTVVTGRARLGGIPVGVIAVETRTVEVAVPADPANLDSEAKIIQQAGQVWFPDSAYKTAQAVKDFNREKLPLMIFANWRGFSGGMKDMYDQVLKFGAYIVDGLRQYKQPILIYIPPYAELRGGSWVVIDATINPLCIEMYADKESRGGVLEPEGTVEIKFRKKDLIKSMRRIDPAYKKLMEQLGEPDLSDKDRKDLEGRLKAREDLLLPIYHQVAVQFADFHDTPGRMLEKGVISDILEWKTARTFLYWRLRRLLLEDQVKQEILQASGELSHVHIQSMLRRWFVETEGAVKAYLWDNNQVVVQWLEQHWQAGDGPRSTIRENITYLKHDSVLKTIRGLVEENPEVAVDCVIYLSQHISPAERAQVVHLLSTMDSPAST

`Cn1c(O[C@H]2CC[C@H](OC[C@H](CF)NC(N)=O)CC2)nc2c(F)cc(OC3CC3)cc21` [Compound I-5]: in series [1], the “Amount of compound remained, Rat” value is listed as 83.4%. Moreover, the results for the IC50 on recombinant human ACC2 and at recombinant human ACC1 were 0.0089 µM and 6.9 µM, respectively. In series [2], the “Amount of compound remained, Human” value amounted to 98.9%.
For `CC(=O)N[C@@H](C)C(F)(F)C[C@H]1CC[C@H](Oc2nc3c(F)cc(OCC(F)F)c(F)c3n2C)CO1` [Compound I-6] the same measures were 74%, 0.012 µM, 0.92 µM and 93.2%.
For `CC(=O)N[C@H](C)C(F)(F)C[C@H]1CC[C@H](Oc2nc3c(F)cc(OCC(F)F)c(F)c3n2C)CO1` [Compound I-7] the same measures were 74.7%, 0.18 µM, 25 µM and 89.1%.
Consider `CC(=O)N[C@@H](C)CO[C@H]1CC[C@H](Oc2nc3c(Cl)cc(OC4CC4)cc3n2C)CC1` [Compound I-3], for which, in series [1], the “Amount of compound remained, Rat” value was found to be 82.6%. Further, the IC50 on recombinant human ACC1 worked out at 2.8 µM. Also, the “Amount of compound remained, Human” value in series [2] was determined as 80.3%.
Turning to `CC(=O)N[C@@H](C)CO[C@H]1CC[C@H](Oc2nc3c(F)cc(OC4CC4)cc3n2C)CC1` [Compound I-15], the “Amount of compound remained, Rat” value in series [1] worked out at 76.2%. In addition, the IC50 turned out to be 0.0038 µM at recombinant human ACC2 and 1.7 µM on recombinant human ACC1. In addition, the “Amount of compound remained, Human” value in series [2] is 80.2%.
For `CC(=O)N[C@@H](C)CO[C@H]1CC[C@H](Oc2nc3c(F)cc(OCC(F)F)c(F)c3n2C)CC1` [Compound I-14] the same measures were 78%, 0.0066 µM, 2.7 µM and 94.8%.
For `C[C@@H](CCC1OCC(Oc2nc3c(F)cc(OCC(F)F)c(F)c3n2C)CO1)NC(N)=O` (stereo partly drawn) [Compound I-11] the same measures were 94.5%, 0.0096 µM, 7 µM and 95.8%.
Take `Cc1nc2ccc(C(=O)N3CCC4(CC3)CC(=O)c3c(cnn3C(C)C)C4)cc2[nH]1` [PF-05175157]: the platelet concentration result in the series on healthy subjects is given as “reduced a platelet concentration”.
Consider `CC(=O)N[C@@H](C)CC(F)(F)[C@@H]1CC[C@@H](Oc2nc3c(F)cc(OCC(F)F)c(F)c3n2C)CO1` [Compound I-10], for which the IC50 on recombinant human ACC2 was 0.089 µM; at recombinant human ACC1 it was greater than 100 µM.
Take `COc1cc(C(=O)N2CCC3(CC2)CC(=O)c2cc(-c4cncc(C(=O)O)c4)ccc2O3)cc2c1c(C)cn2C1CC1` [MK-4074]: the Plasma triglyceride concentration entry in the series on NAFLD patients is “elevated plasma triglyceride concentration”.
Take `CC(=O)N[C@@H](C)CC[C@H]1OC[C@H](Oc2nc3c(F)cc(OCC(F)F)c(F)c3n2C)CC1(F)F` [Compound I-9]: the IC50 is 0.013 µM on recombinant human ACC2 and 2.6 µM at recombinant human ACC1.
`COc1ccccc1[C@H](Cn1c(=O)n(C(C)(C)C(=O)O)c(=O)c2c(C)c(-c3ncco3)sc21)OC1CCOCC1` [firsocostat]: the Plasma triglyceride concentration entry in the series on NAFLD patients (phase II study over 12 weeks) was “elevated plasma triglyceride concentration”.
Turning to `CC(=O)N[C@@H](C)CC[C@H]1OC[C@H](Oc2nc3c(F)cc(OCC(F)F)c(F)c3n2C)C[C@@H]1F` [Compound I-2], the IC50 on recombinant human ACC2 was found to be 0.01 µM; at recombinant human ACC1, 2.4 µM.
With `CC(=O)N[C@@H](CF)CO[C@H]1CC[C@H](Oc2nc3c(F)cc(OC4CC4)cc3n2C)CC1` [Compound I-4], the “Amount of compound remained, Rat” value in series [1] is 87.3%. For the same compound, the IC50 amounted to 0.0047 µM on recombinant human ACC2 and 2.7 µM at recombinant human ACC1. For the same compound, the “Amount of compound remained, Human” value in series [2] was 93.4%.
For `C[C@@H](CO[C@H]1CC[C@H](Oc2nc3c(Cl)cc(OC4CC4)cc3n2C)CC1)NC(N)=O` [Compound I-8] the same measures were 85.4%, 0.017 µM, 6.2 µM and 83.6%.
On to `CC(=O)N[C@@H](C)CO[C@H]1CC[C@H](Oc2nc3c(F)cc(OC4CCC4)cc3n2C)CC1` [Compound I-1], for which the IC50 at recombinant human ACC1 worked out at 0.32 µM.
